Source: a compilation of properties of binary mixtures (doi:10.1016/j.molliq.2022.119944)

Test: xn = mol fraction of the nth substance listed
Details: 101.3 kPa

C=Cn1cc[n+](CCCC)c1.NCC(=O)[O-] + O
Details | electrical conductivity [S/m] | viscosity [mPa·s]
293.15 K, x1 = 0.1 | – | 7.17
293.15 K, x1 = 0.3 | – | 23.93
293.15 K, x1 = 0.7 | – | 403
293.15 K, x1 = 1 | – | 11700
303.15 K, x1 = 0.1 | 1.04 | 7.07
303.15 K, x1 = 0.3 | 1.75 | 19.67
303.15 K, x1 = 0.7 | 1.58 | 282
303.15 K, x1 = 0.9 | 0.412 | 1068
308.15 K, x1 = 0.3 | 1.94 | –
308.15 K, x1 = 0.5 | 2.95 | –
313.15 K, x1 = 0.1 | 1.19 | 6.73
313.15 K, x1 = 0.3 | 2.16 | 14.44
313.15 K, x1 = 0.5 | 3.34 | 33.65
313.15 K, x1 = 0.7 | 2.31 | 199
313.15 K, x1 = 0.9 | 0.653 | 730
313.15 K, x1 = 1 | 0.013 | 5900
318.15 K, x1 = 0.1 | 1.29 | –
318.15 K, x1 = 0.3 | 2.44 | –
318.15 K, x1 = 0.7 | 2.87 | –
318.15 K, x1 = 0.9 | 0.89 | –
318.15 K, x1 = 1 | 0.018 | –
323.15 K, x1 = 0.1 | 1.35 | 6.71
323.15 K, x1 = 0.3 | 2.63 | 11.28
323.15 K, x1 = 0.5 | 4.09 | 28.63
323.15 K, x1 = 0.7 | 3.25 | 168
323.15 K, x1 = 0.9 | 1.2 | 570
323.15 K, x1 = 1 | 0.021 | 3100
333.15 K, x1 = 0.1 | – | 5.87
333.15 K, x1 = 0.5 | – | 28.1
333.15 K, x1 = 0.7 | – | 156
333.15 K, x1 = 0.9 | – | 540
343.15 K, x1 = 0.1 | – | 5.29
343.15 K, x1 = 0.5 | – | 22.04
343.15 K, x1 = 0.7 | – | 132
343.15 K, x1 = 0.9 | – | 540
353.15 K, x1 = 0.1 | – | 5.08
353.15 K, x1 = 0.3 | – | 9.83
353.15 K, x1 = 0.7 | – | 104.8

C=C[n+]1ccn(CCCC)c1.N[C@@H](Cc1c[nH]cn1)C(=O)[O-] + O
Details | electrical conductivity [S/m] | viscosity [mPa·s]
293.15 K, x1 = 0.1 | – | 2.55
293.15 K, x1 = 0.3 | – | 10.63
293.15 K, x1 = 0.5 | – | 26.91
293.15 K, x1 = 0.7 | – | 92.2
293.15 K, x1 = 0.9 | – | 1475
293.15 K, x1 = 1 | – | 8300
303.15 K, x1 = 0.1 | 2.65 | 2.35
303.15 K, x1 = 0.5 | 3.61 | 21.73
303.15 K, x1 = 0.7 | 2.67 | 59.5
303.15 K, x1 = 1 | 0.07 | 5300
308.15 K, x1 = 0.1 | 2.94 | –
308.15 K, x1 = 0.3 | 3.79 | –
308.15 K, x1 = 0.5 | 3.85 | –
308.15 K, x1 = 0.7 | 2.95 | –
308.15 K, x1 = 0.9 | 0.75 | –
308.15 K, x1 = 1 | 0.089 | –
313.15 K, x1 = 0.1 | 3.12 | 2.08
313.15 K, x1 = 0.3 | 4.12 | 5.88
313.15 K, x1 = 0.5 | 4.08 | 17.2
313.15 K, x1 = 0.7 | 3.27 | 43.6
313.15 K, x1 = 0.9 | 0.99 | 1026
313.15 K, x1 = 1 | 0.123 | 2700
318.15 K, x1 = 0.1 | 3.32 | –
318.15 K, x1 = 0.3 | 4.38 | –
318.15 K, x1 = 0.5 | 4.37 | –
318.15 K, x1 = 0.7 | 3.6 | –
318.15 K, x1 = 0.9 | 1.27 | –
318.15 K, x1 = 1 | 0.162 | –
323.15 K, x1 = 0.1 | 3.58 | 1.7
323.15 K, x1 = 0.3 | 4.7 | 4.81
323.15 K, x1 = 0.5 | 4.58 | 14.68
323.15 K, x1 = 0.7 | 3.83 | 33.63
323.15 K, x1 = 0.9 | 1.64 | 930
333.15 K, x1 = 0.1 | – | 1.46
333.15 K, x1 = 0.5 | – | 14.17
333.15 K, x1 = 0.7 | – | 29.24
333.15 K, x1 = 0.9 | – | 550
333.15 K, x1 = 1 | – | 810
343.15 K, x1 = 0.1 | – | 1.04
343.15 K, x1 = 0.3 | – | 4
343.15 K, x1 = 0.5 | – | 13.4
343.15 K, x1 = 0.9 | – | 327
343.15 K, x1 = 1 | – | 500
353.15 K, x1 = 0.1 | – | 0.95
353.15 K, x1 = 0.3 | – | 3.68
353.15 K, x1 = 0.7 | – | 29
353.15 K, x1 = 0.9 | – | 116
353.15 K, x1 = 1 | – | 331

C=C[n+]1ccn(CCCC)c1.NCCCC[C@H](N)C(=O)[O-] + O
Details | electrical conductivity [S/m] | viscosity [mPa·s]
293.15 K, x1 = 0.1 | – | 3.29
293.15 K, x1 = 0.7 | – | 95.3
303.15 K, x1 = 0.1 | 1.99 | 2.85
303.15 K, x1 = 0.3 | 2.61 | 5.21
303.15 K, x1 = 0.7 | 1.91 | 74.7
308.15 K, x1 = 0.3 | 2.78 | –
308.15 K, x1 = 0.5 | 3.12 | –
308.15 K, x1 = 0.7 | 2.3 | –
308.15 K, x1 = 0.9 | 1.23 | –
308.15 K, x1 = 1 | 0.154 | –
313.15 K, x1 = 0.1 | 2.36 | 2.38
313.15 K, x1 = 0.7 | 2.54 | 55.38
313.15 K, x1 = 0.9 | 1.34 | 1167
313.15 K, x1 = 1 | 0.176 | 3700
318.15 K, x1 = 0.1 | 2.51 | –
318.15 K, x1 = 0.3 | 3.29 | –
318.15 K, x1 = 0.5 | 3.6 | –
318.15 K, x1 = 0.7 | 2.95 | –
318.15 K, x1 = 0.9 | 1.45 | –
318.15 K, x1 = 1 | 0.195 | –
323.15 K, x1 = 0.1 | 2.78 | 1.97
323.15 K, x1 = 0.3 | 3.56 | 3.57
323.15 K, x1 = 0.7 | 3.28 | 42.7
323.15 K, x1 = 0.9 | 1.62 | 950
323.15 K, x1 = 1 | 0.214 | 1961
333.15 K, x1 = 0.1 | – | 1.58
333.15 K, x1 = 0.3 | – | 2.36
333.15 K, x1 = 0.5 | – | 36.92
333.15 K, x1 = 0.7 | – | 36.62
333.15 K, x1 = 1 | – | 1174
343.15 K, x1 = 0.3 | – | 2.2
343.15 K, x1 = 0.7 | – | 33.98
343.15 K, x1 = 1 | – | 780
353.15 K, x1 = 0.5 | – | 36.44
353.15 K, x1 = 0.7 | – | 33.87
353.15 K, x1 = 0.9 | – | 185
353.15 K, x1 = 1 | – | 560

C=C[n+]1ccn(CCCC)c1.N[C@@H](CO)C(=O)[O-] + O
Details | electrical conductivity [S/m] | viscosity [mPa·s]
293.15 K, x1 = 0.1 | – | 6.68
293.15 K, x1 = 0.5 | – | 95.4
293.15 K, x1 = 0.7 | – | 720
293.15 K, x1 = 0.9 | – | 2700
293.15 K, x1 = 1 | – | 18000
303.15 K, x1 = 0.3 | 2.86 | 13.51
303.15 K, x1 = 0.5 | 3.18 | 71.2
303.15 K, x1 = 0.7 | 2.61 | 490
303.15 K, x1 = 1 | 0.006 | 13600
308.15 K, x1 = 0.1 | 1.46 | –
308.15 K, x1 = 0.3 | 3.08 | –
308.15 K, x1 = 0.5 | 3.44 | –
308.15 K, x1 = 0.7 | 2.84 | –
308.15 K, x1 = 1 | 0.007 | –
313.15 K, x1 = 0.1 | 1.61 | 5.94
313.15 K, x1 = 0.3 | 3.31 | 10.76
313.15 K, x1 = 0.5 | 3.75 | 54.6
313.15 K, x1 = 0.7 | 3.19 | 446
313.15 K, x1 = 0.9 | 1.1 | 1159
313.15 K, x1 = 1 | 0.01 | 9100
318.15 K, x1 = 0.1 | 1.78 | –
318.15 K, x1 = 0.3 | 3.65 | –
318.15 K, x1 = 0.5 | 4.05 | –
318.15 K, x1 = 0.7 | 3.43 | –
318.15 K, x1 = 0.9 | 1.42 | –
318.15 K, x1 = 1 | 0.013 | –
323.15 K, x1 = 0.1 | 1.9 | 4.84
323.15 K, x1 = 0.3 | 3.9 | 8.81
323.15 K, x1 = 0.5 | 4.46 | 44.4
323.15 K, x1 = 0.7 | 3.82 | 400
323.15 K, x1 = 0.9 | 1.69 | 820
333.15 K, x1 = 0.1 | – | 4.82
333.15 K, x1 = 0.3 | – | 7.96
333.15 K, x1 = 0.7 | – | 396
333.15 K, x1 = 0.9 | – | 670
333.15 K, x1 = 1 | – | 2800
343.15 K, x1 = 0.1 | – | 4.57
343.15 K, x1 = 0.3 | – | 7.27
343.15 K, x1 = 0.5 | – | 37.75
343.15 K, x1 = 0.7 | – | 387
343.15 K, x1 = 0.9 | – | 610
353.15 K, x1 = 0.3 | – | 7.11
353.15 K, x1 = 0.7 | – | 385
353.15 K, x1 = 0.9 | – | 540
